According to PubChem BioAssay AID228 (DTP/NCI, 2004):
“And” between values parts separate entries of the source, which are not always exact repeats. Equal values may be shown once. Results filed as inconclusive are left out.

System: BDF1 mice, Friend leukemia sc, tumor weight T/C
Assay: NCI In Vivo Anticancer Drug Screen. Data for tumor model Friend Virus Leukemia (Solid) (subcutaneous) in B6D2F1 (BDF1) mice
Conditions: endpoint: mean tumor weight, higher = larger tumour
Method: The antitumor activity of compounds was measured in mice bearing transplantable tumors. Survival or tumor size were measured and the results are expressed as the measurement made in the treated group (T) divided by the measurement made in the vehicle treated control group (C). The tumor model used in this assay is Friend Virus Leukemia (Solid) (subcutaneous) in B6D2F1 (BDF1) mice

[1] = dose: 25.0 mg/kg/injection, schedule: Q01DX011 (ip), vehicle: carboxymethylcellulose (CMC)
[2] = dose: 50.0 mg/kg/injection, schedule: Q01DX011 (ip), vehicle: carboxymethylcellulose (CMC)

For `CO/[N+]([O-])=C\C(=O)N/C=C/C(=O)O`, the T/C (dose: 1.25 mg/kg/injection, schedule: Q01DX011 (ip), vehicle: carboxymethylcellulose (CMC)) was 103 % of control, the T/C (dose: 2.5 mg/kg/injection, schedule: Q01DX011 (ip), vehicle: carboxymethylcellulose (CMC)) was 105 % of control and the T/C (dose: 10.0 mg/kg/injection, schedule: Q01DX011 (ip), vehicle: carboxymethylcellulose (CMC)) was 61 % of control. The T/C (dose: 15.0 mg/kg/injection, schedule: Q01DX011 (ip), vehicle: carboxymethylcellulose (CMC)) was 53 % of control and the T/C [1] was 52 % of control.
For `CO[C@H]1CC[C@@]2(C)[C@@H](CC[C@H]3[C@@H]4C[C@H](O)C[C@@]4(C)CC[C@@H]32)C1`, the T/C (dose: 10.0 mg/kg/injection, schedule: Q01DX011 (sc), vehicle: steriod suspending solution) was 108 % of control and the T/C (dose: 15.0 mg/kg/injection, schedule: Q01DX011 (sc), vehicle: steriod suspending solution) was 104 % of control.
In the case of `CCc1nc(N)nc(N)c1-c1ccc(Cl)cc1`, the T/C (dose: 6.25 mg/kg/injection, schedule: Q01DX011 (ip), vehicle: carboxymethylcellulose (CMC)) was 124 % of control, the T/C (dose: 12.5 mg/kg/injection, schedule: Q01DX011 (ip), vehicle: carboxymethylcellulose (CMC)) was 85 % of control and the T/C [1] was 113 % of control. For the same compound, the T/C [2] was 95 % of control.
`NC(=O)c1ccc(NC(=O)CCC(=O)Nc2ccc(C(N)=O)cn2)nc1` was tested, and the T/C (dose: 0.5 mg/kg/injection, schedule: Q01DX011 (ip), vehicle: saline) was 106 % of control, the T/C (dose: 1.0 mg/kg/injection, schedule: Q01DX011 (ip), vehicle: saline) was 117 % of control and the T/C (dose: 2.0 mg/kg/injection, schedule: Q01DX011 (ip), vehicle: saline) was 106 % of control. The T/C (dose: 4.0 mg/kg/injection, schedule: Q01DX011 (ip), vehicle: saline) was 57 % of control.
In the case of `CC(=O)[C@H]1CC[C@H]2[C@@H]3CCC4=CC(=O)CC[C@]4(C)[C@H]3CC[C@]12C`, the T/C (dose: 250.0 mg/kg/injection, schedule: Q01DX011 (sc), vehicle: steriod suspending solution) was 228 % of control, the T/C (dose: 500.0 mg/kg/injection, schedule: Q01DX011 (sc), vehicle: steriod suspending solution) was 165 % of control and the T/C (dose: 750.0 mg/kg/injection, schedule: Q01DX011 (sc), vehicle: steriod suspending solution) was 212 % of control. For the same compound, the T/C (dose: 1000.0 mg/kg/injection, schedule: Q01DX011 (sc), vehicle: steriod suspending solution) was 291 % of control.
In the case of `CCOC(N)=O`, the T/C (dose: 37.5 mg/kg/injection, schedule: Q01DX011 (ip), vehicle: carboxymethylcellulose (CMC)) was 68 % of control, the T/C (dose: 62.12 mg/kg/injection, schedule: Q01DX011 (ip), vehicle: carboxymethylcellulose (CMC)) was 110 % of control and the T/C (dose: 62.5 mg/kg/injection, schedule: Q01DX011 (ip), vehicle: carboxymethylcellulose (CMC)) was 58 % of control. For the same compound, the T/C (dose: 75.0 mg/kg/injection, schedule: Q01DX011 (ip), vehicle: carboxymethylcellulose (CMC)) was 50 % of control, the T/C (dose: 125.0 mg/kg/injection, schedule: Q01DX011 (ip), vehicle: carboxymethylcellulose (CMC)) was 67 % of control and the T/C (dose: 125.25 mg/kg/injection, schedule: Q01DX011 (ip), vehicle: carboxymethylcellulose (CMC)) was 95 % of control. For the same compound, the T/C (dose: 150.0 mg/kg/injection, schedule: Q01DX011 (ip), vehicle: carboxymethylcellulose (CMC)) was 52 % of control and 36 % of control, the T/C (dose: 250.0 mg/kg/injection, schedule: Q01DX011 (ip), vehicle: carboxymethylcellulose (CMC)) was 58 % of control and 66 % of control and 50 % of control and the T/C (dose: 250.5 mg/kg/injection, schedule: Q01DX011 (ip), vehicle: carboxymethylcellulose (CMC)) was 115 % of control. The T/C (dose: 300.0 mg/kg/injection, schedule: Q01DX011 (ip), vehicle: carboxymethylcellulose (CMC)) was 21 % of control, the T/C (dose: 334.0 mg/kg/injection, schedule: Q01DX011 (ip), vehicle: carboxymethylcellulose (CMC)) was 56 % of control and 37 % of control and the T/C (dose: 450.0 mg/kg/injection, schedule: Q01DX011 (ip), vehicle: carboxymethylcellulose (CMC)) was 20 % of control. For the same compound, the T/C (dose: 600.0 mg/kg/injection, schedule: Q01DX011 (ip), vehicle: carboxymethylcellulose (CMC)) was 26 % of control and the T/C (dose: 800.0 mg/kg/injection, schedule: Q01DX011 (ip), vehicle: carboxymethylcellulose (CMC)) was 36 % of control.
With `O=[n+]1c2c(n([O-])c3ccccc31)-c1cccc3cccc-2c13` the T/C [1] was 87 % of control, the T/C [2] was 55 % of control and the T/C (dose: 100.0 mg/kg/injection, schedule: Q01DX011 (ip), vehicle: carboxymethylcellulose (CMC)) was 43 % of control.
In the case of `O=C(Nc1ccc(C2=NCCCN2)cc1)c1ccc(NC(=O)c2ccc(C3=NCCCN3)cc2)cc1`, the T/C (dose: 4.0 mg/kg/injection, schedule: Q01DX011 (ip), vehicle: carboxymethylcellulose (CMC)) was 49 % of control, the T/C (dose: 6.0 mg/kg/injection, schedule: Q01DX011 (ip), vehicle: carboxymethylcellulose (CMC)) was 9 % of control and the T/C (dose: 8.0 mg/kg/injection, schedule: Q01DX011 (ip), vehicle: carboxymethylcellulose (CMC)) was 1 % of control.
